SMILES strings stand for the structures.

This is an account of results in patent US20190201586A1, “Three-Dimensional Tissue Matrix Scaffold System” (Washington State University, priority 2016, published 2019).

Type in all cases: cell-based
One assay deals with T47D cells. As to the kind of experiment: Live/Dead Cell staining of scaffold cultures after drug treatment. The note with it: T47D-laden DBT-TMS and PLGA scaffolds; 1 μM. As for the experimental part: Live/Dead Cell staining. The survival of the cells grown on the 3D scaffolds were assessed using the Live/Dead Cell Staining kit. The cell-carrying scaffolds at different time points or under different treatment conditions were collected and manually sectioned at 250-500 μm of thickness. The sections were washed twice with 1×PBS (37° C.), incubated in the staining solution (2 μM of calcein-AM and 4 μM of EhtD-III in 1×PBS) at RT for 45 minutes, and imaged using fluorescence microscopy. Calcein-AM stains live cells green (under EGFP filter), while EthD-III stains dead cells red (under Texas Red filter).
Drug screening. The T47D and BT474 breast cancer cells were used to test the efficacies of the two anticancer drugs, HT and Taxol, in 2D and 3D cultures. 2×10^3 cells/well and 1×10^5 cells/scaffold (in triplicates) were seeded on 2D surface and the 3D scaffolds, respectively, and cultured in 96-well plates for 7 days. The drugs at the final concentration of 1 μM were administered separately to the cultures on day 7, 9, 11, 13 of culture for 24 hours, and cell survival as well as proliferation status assessed on day 1, 8, 10, 12, 14, 21 using the CCK-8 reagent and the Live/Dead assay, respectively. After the measurement on day 14, a seven-day recovering period was included to evaluate the post-treatment proliferation potential of the cells. […]

Assay [1] concerns BT474 breast cancer cells. As to the kind of experiment: CCK-8 proliferation assay and drug screening, BT474 cells in 2D culture and on 3D scaffolds. The note with it: 1 μM; for cell proliferation after administration of the drug: on day 7, 9, 11, 13, 3D and 2D cultures; for response of the cancer cells to the drug in cell-laden TMS cultures compared to the other 3D culture conditions: TMS vs collagen, IrECM, PLGA scaffolds. The procedure: (§1) Proliferation assay in 3D culture. The proliferation of the cells grown on the different scaffolds or treated with the different drugs was measured using the CCK-8 reagent at the time points indicated. Briefly, the cell-laden scaffolds (triplicates for each condition) were cultured in 96-well plates. CCK-8 solution was added at a 1:10 dilution into the cultures. The colorimetric absorbance of the supernatants of the cultures that reflects the cell proliferation rate was measured at 490 nm using a Synergy 2 microplate reader (BioTek) after 4 hours of incubation (37° C., 5% CO2). Error bars represent standard deviations (s.d.) of the means of three independent experiments.
(§2) Drug screening. The T47D and BT474 breast cancer cells were used to test the efficacies of the two anticancer drugs, HT and Taxol, in 2D and 3D cultures. 2×10^3 cells/well and 1×10^5 cells/scaffold (in triplicates) were seeded on 2D surface and the 3D scaffolds, respectively, and cultured in 96-well plates for 7 days. The drugs at the final concentration of 1 μM were administered separately to the cultures on day 7, 9, 11, 13 of culture for 24 hours, and cell survival as well as proliferation status assessed on day 1, 8, 10, 12, 14, 21 using the CCK-8 reagent and the Live/Dead assay, respectively. After the measurement on day 14, a seven-day recovering period was included to evaluate the post-treatment proliferation potential of the cells. Three independent experiments were performed for statistical significance.
In general terms: Tetrazolium dyes change colour on reduction, which living cells bring about.

In the next assay the test system is T47D breast cancer cells. As to the kind of experiment: CCK-8 proliferation assay and drug screening, T47D cells in 2D culture and on 3D scaffolds. The note with it: 1 μM; for cell proliferation after administration of the drug: on day 7, 9, 11, 13, 3D and 2D cultures; for response of the cancer cells to the drug in cell-laden TMS cultures compared to the other 3D culture conditions: TMS vs collagen, IrECM, PLGA scaffolds. As for the experimental part:
as §1, §2

Regarding `CC(=O)O[C@H]1C(=O)[C@@]2(C)[C@H]([C@H](OC(=O)c3ccccc3)[C@]3(O)C[C@H](OC(=O)[C@H](O)[C@@H](NC(=O)c4ccccc4)c4ccccc4)C(C)=C1C3(C)C)[C@]1(OC(C)=O)CO[C@@H]1C[C@@H]2O` [Taxol, Paclitaxel], in the assay with T47D cells, the “cell proliferation and clustering over the period of treatment (Live/Dead staining)” value is on record as “markedly attenuated”. In assay [1], the “cell proliferation after administration of the drug” value (“cell proliferation … of the drug” below) is on record as “time-dependently inhibited cell proliferation” and the “response of the cancer cells to the drug in cell-laden TMS cultures compared to the other 3D culture conditions” value is on record as “lower response”. Besides, in the assay with T47D breast cancer cells, the “cell proliferation … of the drug” value was “time-dependently inhibited cell proliferation” and the “response of the cancer cells to the drug in cell-laden TMS cultures compared to the other 3D culture conditions” value was “lower response”.

As to `CC/C(=C(\c1ccc(O)cc1)c1ccc(OCCN(C)C)cc1)c1ccccc1` [HT, (Z)-4-Hydroxytamoxifen], the “cell proliferation and clustering over the period of treatment (Live/Dead staining)” value in the assay on T47D cells was “markedly attenuated”. For the same compound, the “cell proliferation … of the drug” value (in assay [1]; in the assay with T47D breast cancer cells) was “time-dependently inhibited cell proliferation” throughout. The “response of the cancer cells to the drug in cell-laden TMS cultures compared to the other 3D culture conditions” value (in assay [1]; in the assay on T47D breast cancer cells) was “lower response” each time.
